Read-outs that look alike come from different tables or passages of the source.
What was measured:
M14 = test: cells; parameters: species or system NCI human tumour cell line panel; NCI one-dose anti-proliferative screen, human tumour cell line panel, growth inhibition percent (GI%); conditions: Homo sapiens, M14; growth inhibition (GI%), single dose
MDA-MB-435 = test: cells; parameters: species or system NCI human tumour cell line panel; NCI one-dose anti-proliferative screen, human tumour cell line panel, growth inhibition percent (GI%); conditions: Homo sapiens, MDA-MB-435; growth inhibition (GI%), single dose
COLO 205 = test: cells; parameters: species or system NCI human tumour cell line panel; NCI one-dose anti-proliferative screen, human tumour cell line panel, growth inhibition percent (GI%); conditions: Homo sapiens, COLO 205; growth inhibition (GI%), single dose
TK-10 = test: cells; parameters: species or system NCI human tumour cell line panel; NCI one-dose anti-proliferative screen, human tumour cell line panel, growth inhibition percent (GI%); conditions: Homo sapiens, TK-10; growth inhibition (GI%), single dose
HOP-92 = test: cells; parameters: species or system NCI human tumour cell line panel; conditions: Homo sapiens, HOP-92; growth inhibition (GI%), single dose
SK-MEL-2 = test: cells; parameters: species or system NCI human tumour cell line panel; NCI one-dose anti-proliferative screen, human tumour cell line panel, growth inhibition percent (GI%); conditions: Homo sapiens, SK-MEL-2; growth inhibition (GI%), single dose
KM12 = test: cells; parameters: species or system NCI human tumour cell line panel; NCI one-dose anti-proliferative screen, human tumour cell line panel, growth inhibition percent (GI%); conditions: Homo sapiens, KM12; growth inhibition (GI%), single dose
IGROV1 = test: cells; parameters: species or system NCI human tumour cell line panel; NCI one-dose anti-proliferative screen, human tumour cell line panel, growth inhibition percent (GI%); conditions: Homo sapiens, IGROV-1; growth inhibition (GI%), single dose
MDA-MB-468 = test: cells; parameters: species or system NCI human tumour cell line panel; NCI one-dose anti-proliferative screen, human tumour cell line panel, growth inhibition percent (GI%); conditions: Homo sapiens, MDA-MB-468; growth inhibition (GI%), single dose
MDA-MB-231/ATCC = test: cells; parameters: species or system NCI human tumour cell line panel; NCI one-dose anti-proliferative screen, human tumour cell line panel, growth inhibition percent (GI%); conditions: Homo sapiens, MDA-MB-231; growth inhibition (GI%), single dose
SF-295 = test: cells; parameters: species or system NCI human tumour cell line panel; NCI one-dose anti-proliferative screen, human tumour cell line panel, growth inhibition percent (GI%); conditions: Homo sapiens, SF-295; growth inhibition (GI%), single dose
DU-145 = test: cells; parameters: species or system NCI human tumour cell line panel; NCI one-dose anti-proliferative screen, human tumour cell line panel, growth inhibition percent (GI%); conditions: Homo sapiens, DU-145; growth inhibition (GI%), single dose
786-0 = test: cells; parameters: species or system NCI human tumour cell line panel; NCI one-dose anti-proliferative screen, human tumour cell line panel, growth inhibition percent (GI%); conditions: Homo sapiens, 786-0; growth inhibition (GI%), single dose
hCA IX = target: T1, hCA IX (Homo sapiens, UniProt Q16790); test: stopped-flow CO2 hydrase assay; assay type: biochemical
T1 construct: gene CA9; recombinant, obtained in-house as reported earlier
Description: stopped-flow CO2 hydrase assay on hCA IX

hCA II = target: T2, hCA II (Homo sapiens, UniProt P00918); test: stopped-flow CO2 hydrase assay; assay type: biochemical
T2 construct: gene CA2; recombinant, obtained in-house as reported earlier; cytosolic
Description: stopped-flow CO2 hydrase assay on hCA II

hCA IV = target: T3, hCA IV (Homo sapiens, UniProt P22748); test: stopped-flow CO2 hydrase assay; assay type: biochemical
T3 construct: gene CA4; recombinant, obtained in-house as reported earlier
T3 sequence (P22748 19-284): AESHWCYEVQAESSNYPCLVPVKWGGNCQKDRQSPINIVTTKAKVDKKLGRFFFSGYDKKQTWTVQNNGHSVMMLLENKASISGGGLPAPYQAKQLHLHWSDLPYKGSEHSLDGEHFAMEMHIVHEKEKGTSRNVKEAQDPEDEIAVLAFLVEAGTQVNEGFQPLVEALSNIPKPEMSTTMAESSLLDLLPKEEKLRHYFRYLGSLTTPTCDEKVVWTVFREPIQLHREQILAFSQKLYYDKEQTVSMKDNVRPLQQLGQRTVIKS
Description: stopped-flow CO2 hydrase assay on hCA IV

RXF 393 = test: cells; parameters: species or system NCI human tumour cell line panel; NCI one-dose anti-proliferative screen, human tumour cell line panel, growth inhibition percent (GI%); conditions: Homo sapiens, RXF 393; growth inhibition (GI%), single dose
NCI-H460 = test: cells; parameters: species or system NCI human tumour cell line panel; NCI one-dose anti-proliferative screen, human tumour cell line panel, growth inhibition percent (GI%); conditions: Homo sapiens, NCI-H460; growth inhibition (GI%), single dose
OVCAR-5 = test: cells; parameters: species or system NCI human tumour cell line panel; NCI one-dose anti-proliferative screen, human tumour cell line panel, growth inhibition percent (GI%); conditions: Homo sapiens, OVCAR-5; growth inhibition (GI%), single dose
HCC-2998 = test: cells; parameters: species or system NCI human tumour cell line panel; NCI one-dose anti-proliferative screen, human tumour cell line panel, growth inhibition percent (GI%); conditions: Homo sapiens, HCC 2998; growth inhibition (GI%), single dose
SK-MEL-28 = test: cells; parameters: species or system NCI human tumour cell line panel; NCI one-dose anti-proliferative screen, human tumour cell line panel, growth inhibition percent (GI%); conditions: Homo sapiens, SK-MEL-28; growth inhibition (GI%), single dose

Compound | inhibition at 10 µM (M14) | inhibition at 10 µM (MDA-MB-435) | inhibition at 10 µM (SK-MEL-2) | inhibition at 10 µM (KM12) | inhibition at 10 µM (IGROV1) | inhibition at 10 µM (MDA-MB-468) | inhibition at 10 µM (MDA-MB-231/ATCC) | inhibition at 10 µM (SF-295) | Ki (hCA IX) | Ki (hCA II) | Ki (hCA IV) | further results
N#Cc1nnn(-c2ccc(S(N)(=O)=O)cc2)c1N [compound 3, 3] | 2.7% | 3.1% | – | – | – | – | – | – | – | – | – | inhibition at 10 µM (COLO 205): 5.1%; inhibition at 10 µM (TK-10): 9.2%
N#Cc1nnn(-c2ccc(S(N)(=O)=O)cc2)c1NC(=O)CCl [compound 5, 5] | – | – | – | – | – | – | – | – | – | – | – | inhibition at 10 µM (HOP-92): 3.9%
N#Cc1nnn(-c2ccc(S(N)(=O)=O)cc2)c1NCC(=O)c1ccccc1 [compound 7, 7] | 2.6% | 8.3% | 2.2% | 0.6% | 0.5% | 3.3% | 4.9% | – | – | – | – | –
N#Cc1nnn(-c2ccc(S(N)(=O)=O)cc2)c1/N=C/c1ccc(Cl)cc1 [compound 9, 9] | – | 3.4% | – | 0.5% | – | – | – | 0.3% | – | – | – | inhibition at 10 µM (DU-145): 1%; inhibition at 10 µM (786-0): 6.1%; inhibition at 10 µM (TK-10): 7.6%
N#Cc1nnn(-c2ccc(S(N)(=O)=O)cc2)c1NS(=O)(=O)c1ccccc1 [compound 11, N-(4-cyano-1-(4-sulfamoylphenyl)-1H-1,2,3-triazol-5-yl)benzenesulfonamide] | 3.3% | – | – | – | 3.3% | – | – | – | 144 nM | 356 nM | 4520 nM | –
N#Cc1c(-c2ccc(Cl)cc2)nc2c(nnn2-c2ccc(S(N)(=O)=O)cc2)c1N [compound 16, 4-(7-amino-5-(4-chlorophenyl)-6-cyano-3H-[1,2,3]triazolo[4,5-b]pyridin-3-yl)benzenesulfonamide] | – | 2.9% | – | – | 16.4% | – | 24.2% | 5.7% | 42.6 nM | 169 nM | 788 nM | inhibition at 10 µM (RXF 393): 17.8%
CN(C)c1ccc(-c2nc3c(nnn3-c3ccc(S(N)(=O)=O)cc3)c(N)c2C#N)cc1 [compound 17, 4-(7-amino-6-cyano-5-(4-(dimethylamino)phenyl)-3H-[1,2,3]triazolo[4,5-b]pyridin-3-yl)benzenesulfonamide] | 3.5% | – | 2.3% | 5.9% | 12.1% | 3.2% | 18% | 3.1% | – | 56.8 nM | 473 nM | inhibition at 10 µM (NCI-H460): 0.9%; inhibition at 10 µM (OVCAR-5): 3.4%; inhibition at 10 µM (COLO 205): 17%; inhibition at 10 µM (HCC-2998): 3.9%; Ki (hCA IX; CO2 […], […] Hepes pH […] Na2SO4, […] phenol red, […] min pre-incubation at room temperature): 35.1 nM
Nc1nc(=S)[nH]c2c1nnn2-c1ccc(S(N)(=O)=O)cc1 [compound 18, 4-(7-amino-5-thioxo-4,5-dihydro-3H-[1,2,3]triazolo[4,5-d]pyrimidin-3-yl)benzenesulfonamide] | – | – | – | – | – | 3.5% | 14.8% | – | 272 nM | 732 nM | 489 nM | –
CCn1c(=S)[nH]c2c(nnn2-c2ccc(S(N)(=O)=O)cc2)c1=N [compound 20, 4-(6-ethyl-7-imino-5-thioxo-4,5,6,7-tetrahydro-3H-[1,2,3]triazolo[4,5-d]pyrimidin-3-yl)benzenesulfonamide] | – | – | 8.2% | – | – | – | – | – | 242 nM | 930 nM | 875 nM | inhibition at 10 µM (SK-MEL-28): 0%; inhibition at 10 µM (HCC-2998): 2.2%
